Data on 17 compounds can be found in ChEMBL document CHEMBL4342418, “1,2,3-Triazole-containing hybrids as potential anticancer agents: Current developments, action mechanisms and structure-activity relationships” (Eur J Med Chem, 2019).

The subject of assay [1] is MCF7. The assay is described as follows: Antiproliferative activity against human MCF7 cells assessed as reduction in cell viability after 72 hrs by MTT assay. Particulars: MCF7, 72 h. The format is functional, cell-based. On the technique in general: Formazan colour is commonly taken as a measure of viable cells.
The test system of assay [2] is T47D. Description: Antiproliferative activity against human T47D cells assessed as reduction in cell viability after 72 hrs by MTT assay. The format is functional, cell-based.
In assay [3] the test system is HeLa. Description: Antiproliferative activity against human HeLa cells assessed as reduction in cell viability after 72 hrs by MTT assay. Type of assay: functional, cell-based.
Assay [4] has as its system MDA-MB-231. The assay is described as follows: Antiproliferative activity against human MDA-MB-231 cells assessed as reduction in cell viability after 72 hrs by MTT assay. The following applies: MDA-MB-231, 72 h, read-out: IC50. Type of assay: functional, cell-based.
The subject of assay [5] is A-431. The assay is described as follows: Antiproliferative activity against human A431 cells assessed as reduction in cell viability after 72 hrs by MTT assay. The format is functional, cell-based. Particulars: A-431, 72 h.
Assay [6] concerns A2780. The assay is described as follows: Antiproliferative activity against human A2780 cells assessed as reduction in cell viability after 72 hrs by MTT assay. The format is functional, cell-based. Particulars: A2780, 72 h.
Assay [7] in a line: Antiproliferative activity against human […] cells assessed as reduction in cell viability after 72 hrs by MTT assay. The format is functional, cell-based.
The subject of assay [8] is PC-3. Description: Antiproliferative activity against human PC3 cells assessed as reduction in cell viability after 24 hrs by MTT assay. The format is functional, cell-based. Particulars: PC-3, 24 h.
For assay [9], the system named is HepG2. Description: Antiproliferative activity against human HepG2 cells assessed as reduction in cell viability after 24 hrs by MTT assay. The format is functional, cell-based. Particulars: HepG2, 24 h.
For assay [10], the system named is HCT-116. The assay is described as follows: Antiproliferative activity against human HCT116 cells assessed as reduction in cell viability after 24 hrs by MTT assay. Type of assay: functional, cell-based. Particulars: HCT-116, 24 h.
Assay [11] has as its system MCF7. Description: Antiproliferative activity against human MCF7 cells assessed as reduction in cell viability after 24 hrs by MTT assay. The format is functional, cell-based. Particulars: MCF7, 24 h.
Assay [12] can be described thus: Cytotoxicity against human HEK cells assessed as reduction in cell viability after 24 hrs by MTT assay. The format is cell-based. The following applies: HEK293, 24 h.
Assay [13] deals with Erythrocyte. Description: Cytotoxicity against human RBC cells assessed as reduction in cell viability after 24 hrs by MTT assay. The format is cell-based.
Assay [14] relates to PBMC. The assay is described as follows: Cytotoxicity against human PBMC cells assessed as reduction in cell viability after 24 hrs by MTT assay. The format is cell-based.
Assay [15] concerns MCF7. Description: cells. The format is functional, cell-based. Particulars: Homo sapiens.
Description: Antiproliferative activity against human MCF7 cells by MTT assay
The subject of assay [16] is HepG2. The assay is described as follows: Antiproliferative activity against human HepG2 cells by MTT assay. The format is functional, cell-based.
The subject of assay [17] is A549. Description: cells. The format is functional, cell-based. The following applies: Homo sapiens.
Description: Antiproliferative activity against human A549 cells by MTT assay
The subject of assay [18] is HeLa. The assay is described as follows: Antiproliferative activity against human HeLa cells by MTT assay. The format is functional, cell-based.
In assay [19] the test system is DU-145. The assay is described as follows: Antiproliferative activity against human DU145 cells by MTT assay. Type of assay: functional, cell-based.
The subject of assay [20] is PC-3. The assay is described as follows: Antiproliferative activity against human PC3 cells by MTT assay. The format is functional, cell-based.
Assay [21] has as its system NIH3T3. Description: Antiproliferative activity against mouse NIH/3T3 cells by MTT assay. The format is functional, cell-based.
Assay [22] in a line: Antiproliferative activity against BAEC cells assessed as reduction in cell viability after 3 days by coulter counting method. Type of assay: functional, cell-based. Particulars: Bos taurus, 72 h.
Assay [23] deals with L1210. Description: Antiproliferative activity against mouse L1210 cells assessed as reduction in cell viability after 3 days by coulter counting method. The format is functional, cell-based. The following applies: L1210, 72 h.
Assay [24] relates to DU-145. Description: Antiproliferative activity against human DU145 cells assessed as reduction in cell viability after 48 hrs by MTT assay. The format is functional, cell-based. The following applies: DU-145, 48 h.
Assay [25] deals with SK-OV-3. The assay is described as follows: Antiproliferative activity against human SKOV3 cells assessed as reduction in cell viability after 48 hrs by MTT assay. Particulars: SK-OV-3, 48 h. The format is functional, cell-based.
For assay [26], the system named is HeLa. The assay is described as follows: Antiproliferative activity against human HeLa cells assessed as reduction in cell viability after 48 hrs by MTT assay. Type of assay: functional, cell-based.
For assay [27], the system named is PC-3. The assay is described as follows: cells. Type of assay: functional, cell-based. The following applies: Homo sapiens, PC-3, 48 h.
Description: Antiproliferative activity against human PC3 cells assessed as reduction in cell viability after 48 hrs by MTT assay
For assay [28], the system named is SW-620. The assay is described as follows: cells. Type of assay: functional, cell-based. Particulars: Homo sapiens, SW-620, 48 h.
Description: Antiproliferative activity against human SW620 cells assessed as reduction in cell viability after 48 hrs by MTT assay
Assay [29] concerns ASPC1. The assay is described as follows: cells. Type of assay: functional, cell-based. Particulars: Homo sapiens, ASPC1, 48 h.
Description: Antiproliferative activity against human Aspc-1 cells assessed as reduction in cell viability after 48 hrs by MTT assay
In assay [30] the test system is NCI-H23. The assay is described as follows: cells. The format is functional, cell-based. Particulars: Homo sapiens, NCI-H23, 48 h.
Description: Antiproliferative activity against human NCI-H23 cells assessed as reduction in cell viability after 48 hrs by MTT assay
Assay [31] has as its system K562. The assay is described as follows: Antiproliferative activity against human K562 cells assessed as reduction in cell viability after 24 hrs by MTT assay. The format is functional, cell-based. The following applies: K562, 24 h.
In assay [32] the test system is HL-60. Description: Antiproliferative activity against human HL60 cells assessed as reduction in cell viability after 24 hrs by MTT assay. Type of assay: functional, cell-based. Particulars: HL-60, 24 h.
The test system of assay [33] is K562-Lucena 1. The assay is described as follows: Antiproliferative activity against human K562-Lucena 1 cells assessed as reduction in cell viability after 24 hrs by MTT assay. The format is functional, cell-based. Particulars: K562-Lucena 1, 24 h.
Assay [34] relates to NCI-H460. The assay is described as follows: Antiproliferative activity against human H460 cells by MTT assay. Type of assay: functional, cell-based.
Assay [35] deals with HCT-116. Description: Antiproliferative activity against human HCT116 cells by MTT assay. Type of assay: functional, cell-based.
Assay [36] has as its system K562. The assay is described as follows: Antiproliferative activity against human K562 cells by MTT assay. The format is functional, cell-based.
The test system of assay [37] is LoVo. The assay is described as follows: Antiproliferative activity against human LoVo cells by MTT assay. Type of assay: functional, cell-based.
For assay [38], the system named is A549. The assay is described as follows: Antiproliferative activity against human A549 cells assessed as reduction in cell viability after 72 hrs by MTT assay. The format is functional, cell-based. Particulars: A549, 72 h.
The test system of assay [39] is A549/TR. Description: Antiproliferative activity against human A549/TR cells assessed as reduction in cell viability after 72 hrs by MTT assay. The format is functional, cell-based.
Assay [40] relates to A549/CDDP. The assay is described as follows: Antiproliferative activity against human A549/CDDP cells assessed as reduction in cell viability after 72 hrs by MTT assay. Type of assay: functional, cell-based.
Assay [41] has as its system HepG2. Description: Antiproliferative activity against human HepG2 cells assessed as reduction in cell viability after 72 hrs by MTT assay. The format is functional, cell-based. The following applies: HepG2, 72 h.
Assay [42] deals with HCT-116. Description: Antiproliferative activity against human HCT116 cells assessed as reduction in cell viability after 72 hrs by MTT assay. Type of assay: functional, cell-based. Particulars: HCT-116, 72 h.
For assay [43], the system named is U-251. The assay is described as follows: Antiproliferative activity against human U251 cells assessed as reduction in cell viability after 72 hrs by MTT assay. Type of assay: functional, cell-based. Particulars: U-251, 72 h.

A word on the IC50: it is the concentration that inhibits the measured activity by half.

With `CC(C)(C)c1ccc(-c2cn([C@H]3C[C@H]4[C@@H]5CCc6cc(OCc7ccccc7)ccc6[C@H]5CC[C@@]4(C)[C@@H]3O)nn2)cc1`, the 50% inhibitory concentration (IC50) in [1], in assay [2], in assay [3], in assay [4], in assay [5] and in assay [6] was 2.4 to 8.3 µM each time. For the same compound, the IC50 in [7] was 2.4 to 8.3 µM.

For the compound `C#Cc1cccc(Nc2ncnc3cc(OCCOC)c(OCCOC)cc23)c1` [ERLOTINIB], the IC50 is 11.6 to 26.9 µM in [8]; 11.6 to 26.9 µM in assay [9]; 11.6 to 26.9 µM in assay [10]; 11.6 to 26.9 µM in assay [11]; 29.5 µM in assay [12]; 16.2 µM in assay [13]. Further, the IC50 in assay [14] was 20.5 µM.

Turning to `COc1cc([C@@H]2c3cc4c(cc3[C@H](O)[C@H]3COC(=O)[C@H]23)OCO4)cc(OC)c1OC` [PODOFILOX], the half-maximal inhibitory concentration (IC50) lay in the range of 3.06 to 34.4 µM in assay [15]; 3.06 to 6.63 µM in assay [16]; 3.06 to 34.4 µM in assay [17]; 3.06 to 6.63 µM in assay [18]; 3.06 to 6.63 µM in [19]; 3.06 to 34.4 µM in assay [20]. In assay [21], this compound displayed an IC50 of 3.06 to 6.63 µM.

Consider `CS(=O)(=O)c1ccc(-c2cn(-c3cccc(-c4ccccn4)c3)nn2)cc1`, for which the IC50 in assay [22] and in assay [23] was 100 µM in each case.

For the compound `CCc1ccc(-n2cc(CNC(=O)C(=O)c3c[nH]c4ccccc34)nn2)cc1`, the IC50 in assay [24] is 8.17 µM; in assay [25], above 100 µM; in assay [26] it was above 100 µM.

On to `COc1ccc2c(c1)/C(=N\O)C(=O)N2Cc1cn(Cc2ccc(C(=O)NO)cc2)nn1`, for which the 50% inhibitory concentration (IC50) in assay [27], in [28], in assay [29] and in assay [30] was 1400 to 2620 nM throughout.

On to `O=C1C=C(n2cc(-c3ccccc3)nn2)C(=O)c2ccccc21`, for which the IC50 in [31], in assay [14], in assay [32] and in assay [33] was 14.3 to 99.2 µM throughout.

As to `COc1ccc2c(c1)OCC(=O)N2Cc1cn(Cc2ccccc2)nn1`, the IC50 in [17] turned out to be 10 µM; in assay [34] it was 8 µM.

As for `COc1cc2nc(Cl)nc(Nc3ccc(Cn4cc(-c5ccccc5)nn4)cc3)c2cc1OC`, the 50% inhibitory concentration (IC50) in assay [8] was 20.7 to 68 µM; in [9] it was 20.7 to 68 µM; in [10], 20.7 to 68 µM; in assay [11], 20.7 to 68 µM; in assay [12] it was 40.3 µM; in assay [13], 45.6 µM. For the same compound, the half-inhibitory concentration (IC50) in assay [14] was 37.4 µM.

On to `COc1ccc(-c2cn(C3=CC(=O)c4ccccc4C3=O)nn2)cc1`, for which the IC50 in assay [31], in assay [14], in assay [32] and in assay [33] was 14.3 to 99.2 µM throughout.

As to `CCc1ccc(-c2cn([C@H]3C[C@H]4[C@@H]5CCc6cc(OCc7ccccc7)ccc6[C@H]5CC[C@@]4(C)[C@@H]3O)nn2)cc1`, the concentration for half-maximal inhibition (IC50) in assay [1], in assay [2], in assay [3], in assay [4], in assay [5] and in assay [6] was 2.4 to 8.3 µM in each case. Further, the concentration for half-maximal inhibition (IC50) in assay [7] was in the range of 2.4 to 8.3 µM.

In the case of `O=C(CCCCCCC(=O)Nc1ccccc1)NO` [VORINOSTAT], the IC50 in assay [35], in assay [16], in assay [36] and in [37] was 4.95 to 7.11 µM in each case.

Consider `CS(=O)(=O)c1ccc(-c2cn(-c3ccc(Cl)c(-c4ccccn4)c3)nn2)c(Cl)c1`, for which the IC50 in assay [22] and in assay [23] was 40 to 82 µM throughout.

Regarding `Cc1ccc2c(c1)/C(=N\O)C(=O)N2Cc1cn(CCCC(=O)NO)nn1`, the IC50 in assay [27], in assay [28], in [29] and in assay [30] was 490 to 760 nM in each case.

On to `O=C(NCc1cn(-c2ccc(F)cc2)nn1)C(=O)c1c[nH]c2ccccc12`, for which the results for the IC50 in assay [24], in assay [25] and in [26] were 8.69 µM, above 100 µM and above 100 µM, respectively.

Turning to `COc1ccc2[nH]cc(Cn3cc(COc4ccc(/C=C/C(=O)NO)cc4OC)nn3)c2c1`, the IC50 in assay [15], in assay [35], in assay [16], in assay [36] and in assay [37] was 3.57 to 6.21 µM in each case.

With `CC(C)=CCC[C@]1(C)C=Cc2c(O)c3c(c(CC=C(C)C)c2O1)O[C@]12C(=C[C@@H]4C[C@H]1C(C)(C)O[C@@]2(C/C=C(/C)C(=O)O)C4=O)C3=O` [GAMBOGIC ACID], the concentration for half-maximal inhibition (IC50) in assay [38], in [39], in assay [40], in assay [41], in assay [42] and in assay [43] was 290 to 4670 nM in each case.
